Measured values as given in ChEMBL document CHEMBL1145212, “Fluorinated diaryl sulfides as serotonin transporter ligands: synthesis, structure-activity relationship study, and in vivo evaluation of fluorine-18-labeled compounds as PET imaging agents” (J Med Chem, 2005).

Molecular target: Sodium-dependent serotonin transporter (Homo sapiens, UniProt P31645)
Assay: In vitro displacement of [3H]paroxetine from human serotonin transporter expressed in HEK293 cells
Format: cell-based

Sodium-dependent serotonin transporter, sequence (P31645 whole entry): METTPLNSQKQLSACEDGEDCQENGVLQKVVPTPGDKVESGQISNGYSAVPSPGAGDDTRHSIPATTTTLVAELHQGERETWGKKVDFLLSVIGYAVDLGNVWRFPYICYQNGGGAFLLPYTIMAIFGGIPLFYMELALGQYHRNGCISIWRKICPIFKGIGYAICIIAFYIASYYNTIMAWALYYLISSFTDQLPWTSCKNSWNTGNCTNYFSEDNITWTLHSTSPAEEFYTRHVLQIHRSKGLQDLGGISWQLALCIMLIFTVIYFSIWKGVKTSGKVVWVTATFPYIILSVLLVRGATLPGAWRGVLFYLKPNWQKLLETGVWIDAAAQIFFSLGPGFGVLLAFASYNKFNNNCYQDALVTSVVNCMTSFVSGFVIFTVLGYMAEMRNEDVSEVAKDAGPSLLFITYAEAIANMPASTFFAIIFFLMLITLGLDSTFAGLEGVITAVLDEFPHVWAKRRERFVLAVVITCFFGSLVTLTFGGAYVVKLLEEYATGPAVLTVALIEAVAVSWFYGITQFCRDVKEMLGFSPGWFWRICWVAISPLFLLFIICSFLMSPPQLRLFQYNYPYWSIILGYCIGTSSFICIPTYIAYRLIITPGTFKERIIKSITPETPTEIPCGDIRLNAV

SMILES: Cc1ccc(Sc2ccccc2CN(C)C)c(N)c1
- Ki: 1.19 nM
